The structures appear in SMILES notation. Entries after “also recorded” stand apart in the source; their conditions may differ.

One compound from patent US20070054841A1, “Method of treatment of systemic injury secondary to burns” (The University of Queensland, priority 2003, published 2007) can be followed below.

The test system of data set [1] is rats with full thickness skin burn. Briefly: Rat thermal skin burn (30%): bronchoalveolar lavage cell number and lung myeloperoxidase. In kind it is in vivo, Female Wistar rats. The note with it: 10 mg/kg SC pretreatment, 4 hours after burn injury, versus untreated burned animals. As to the method:
A separate series of experiments was performed in the same way to determine myeloperoxidase (MPO) levels in the lung. In this experiment the groups were as follows: Immediately after the 4 hr monitoring period following the burn the lungs were flushed with 10 ml of saline via the pulmonary artery. Bronchoalveolar lavage (BAL) fluid was collected by an irrigation of 1 ml of saline at 37° C. into the lung once through the trachea and the total number of cells present in the lavage fluid was determined. Approximately 50% of the left lung was weighed, then homogenized in 1 ml solution of 0.05% sodium azide in 0.1M PBS (pH 6.4), and then sonicated and centrifuged. The MPO levels in the supernatants of lungs were determined using a tissue MPO assay, and the results were calculated as absorbance/tissue weight (g). Samples of affected skin, lung, liver and kidney were collected for histopathology.

Data set [2] concerns rats with second degree burns. In kind it is in vivo, Female Wistar rats. The conditions noted are these: topical 400 μg/spot immediately after burn; 6 hours after burn. As to the method: The inhibitory effect of topically applied PMX53 on neutrophil infiltration following a burn was examined after a 6 hour period. In order to verify any effect of PMX53 on the immune system, immunoglobulin […] (IgG) levels were examined. IgM levels can be examined using similar methods. Female Wistar rats of body weight about 250 grams were used in this study. A total of nine rats were used in the experiments, divided into 3 groups of 3 animals each: Both sides of the anaesthetized rat body was shaved. […] Skin samples were collected for histopathology. The change in circulating IgG levels following the administration of PMX53 are illustrated in FIG. 7. IgG levels in plasma were measured using an ELISA assay. IgM levels may also may be determined using conventional ELISA techniques. There was no suppression of IgG over the 6 hr period after burns to 15% of the rat skin surface area (n=3). […] The 6 hr period may be too short for the systemic reaction to the burns to be detectable.

Data set [3] has as its system rats with full thickness skin burn. Briefly: Rat thermal skin burn (30% of skin area): Evans Blue leakage and macroscopic appearance of lung. In kind it is in vivo, Female Wistar rats. As to the method:
Female Wistar rats of body weight 250-300 grams were used in this study. The rats were divided into three groups: PMX53 treatment involved a subcutaneous injection of PMX53 in distilled water at a dose of 10 mg/kg 30 minutes before the burn. With the rats under deep anaesthesia, a closely-clipped area of skin on the back equivalent to 30% of total skin area was exposed to water at a temperature of 75° C. for 30 seconds. […] To prevent rapid death from the burn, rats were immediately treated with an intraperitoneal infusion of 8-10 ml normal saline. At the same time Evans Blue (EB) at a concentration of 20 mg/kg was injected via the femoral vein. The rats were then kept on a heating pad to maintain normal body temperature, and monitored for 4 hours. Anaesthetic was topped up as required. At the end of the experiment, 1-2 ml of blood was taken and the serum/plasma stored at −20° C., for subsequent assay of serum TNF-α levels. The leakage of EB/albumin from the blood vessels into the subcutaneous tissue was estimated by examining photographs of skin samples.

Another data set has as its system granulocytes. The conditions noted are these: cynomolgus monkey, in vivo, po, 100 mg/kg/day.
For data set [4], the system named is T-cell dependent antigen responses. The note with it: rat, in vivo, po, 100 mg/kg/day.
Data set [5] is described as follows: Interaction with silver coated Acticoat dressing: silver ion leaching and surface by scanning electron microscopy. In kind it is physicochemical. As to the method: (§1) Uniformly sized segments of the Acticoat dressing (10 mm diameter) were incubated in 7 ml PMX53 solution (1.0 mM in sterile water) or sterile water alone at 37° C. for periods of up to 7 days. The segments were then removed and examined using scanning electron microscopy to determine if the silver coating was affected.
A quantitative assessment of the effect of PMX53 on silver ion leaching was performed by determining the concentration of silver ions in each solution after the incubation described above for 1, 3, 5 and 7 days. Silver ion determination was performed using a Spectroflame model P ICPAES instrument.

The conditions of data set [6]: in vivo.
Data set [7] can be described thus: PMX53 concentration remaining after incubation with Acticoat dressing (HPLC). In kind it is physicochemical. The note with it: throughout the experiment (up to 7 days, 37° C.). As to the method: as §1
An analysis of the concentration of PMX53 remaining in the incubation solutions was performed by high performance liquid chromatography to ascertain if the concentration of PMX53 remained constant throughout the incubation period. PMX53 solution was incubated at 37° C. without a dressing to act as a control.

Turning to `CC(=O)N[C@@H](Cc1ccccc1)C(=O)N[C@H]1CCCNC(=O)[C@H](CCCNC(=N)N)NC(=O)[C@H](Cc2c[nH]c3ccccc23)NC(=O)[C@@H](CC2CCCCC2)NC(=O)[C@@H]2CCCN2C1=O` [PMX53, AcPhe[Orn-Pro-D-Cyclohexylalanine-Trp-Arg]], the “total number of cells in bronchoalveolar lavage fluid” value in data set [1] is “cell numbers approaching those found in the sham-operated, unburned animals”. Moreover, the “total number of cells in bronchoalveolar lavage fluid” value in data set [1] (listed as PMX35) is listed as “dramatically less”. In data set [2], the “neutrophil recruitment in burned skin (histology)” value was “less neutrophil recruitment” and the “structural damage of burned skin (histology)” value is recorded as “same structural damage as burned skin”. The “degree of EB infiltration in the subcutaneous tissues” value in data set [3] (10 mg/kg SC 30 minutes before burn, 4 hours after burning, drug-treated versus untreated burned rats) is on record as “no appreciable difference”. In addition, the “leakage of Evans Blue (plasma) into burnt skin, blue staining and thickening” value in data set [3] (10 mg/kg SC 30 minutes before burn, compared to burn-only group) was “less blue staining and less thickening; also recorded: markedly less plasma leakage into the skin”. Moreover, in data set [3] (10 mg/kg SC pretreatment, 4 hours after burn), the “macroscopic appearance of the lung (EB staining, consolidation)” value is “colour and texture similar to those of the normal lungs; also recorded: appear normal”. Besides, the “phagocytosis or oxidative burst functions of granulocytes” value with granulocytes was “did not detectably impair”. Besides, in data set [4], the “T-cell dependent antigen responses” value is reported as “did not attenuate or increase”. Moreover, the “changes at the surface of Acticoat dressing segments (scanning electron microscopy)” value in data set [5] (7 days incubation with PMX53, magnification of 2000) is recorded as “no apparent changes”. Besides, the “factor of increase in leaching of silver ions from Acticoat dressing” value in data set [5] (PMX53 1 mM, after 1 day of incubation at 37° C.) stood at 2.5. Further, in data set [6], the “penetration through normal rat skin” value was determined as 0.16 %/cm^2. Besides, the “systemic level of the drug after topical administration compared with other routes” value in data set [6] (rat) was “lower systemic level”. The “concentration of PMX53 incubated with Acticoat dressing compared to control PMX53 solution” value in data set [7] is “did not change”.
